According to ChEMBL document CHEMBL1201862, “PubChem BioAssay data set” (2004):
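1) Cells in 96-well plates. 2) Compound, 48 h, 5 concentrations. 3) Linear interpolation between surrounding doses. 4) Unreached endpoint = highest concentration. GI50 is the concentration that inhibits growth by half.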 Active and inactive are the calls of the source. Rule as the data show it: active = GI50 up to about 1.1 µM and inactive = higher.

How the values were obtained:
Assay in all cases: NCI tumour cell line growth inhibition, 48 h
MDA-MB-231 = system: MDA-MB-231
786-0 = system: 786-0
HCT-15 = system: HCT-15
LOX IMVI = system: LOX IMVI
HT-29 = system: HT-29
HCT-116 = system: HCT-116
NCI-H23 = system: NCI-H23
COLO 205 = system: COLO 205
A549 = system: A549
SW-620 = system: SW-620
MDA-MB-435 = system: MDA-MB-435
NCI-H226 = system: NCI-H226
UO-31 = system: UO-31
NCI/ADR-RES = system: NCI/ADR-RES
A498 = system: A498
SK-MEL-2 = system: SK-MEL-2
CAKI-1 = system: CAKI-1
MDA-N = system: MDA-N
SNB-75 = system: SNB-75
U-251 = system: U-251

Compound | GI50 (MDA-MB-231) | GI50 (786-0) | GI50 (HCT-15) [µM] | GI50 (LOX IMVI) | GI50 (HT-29) | GI50 (HCT-116) | GI50 (NCI-H23) | GI50 (COLO 205) | GI50 (A549) | GI50 (SW-620) | GI50 (MDA-MB-435) | GI50 (NCI-H226) | GI50 (UO-31) | GI50 (NCI/ADR-RES) | GI50 (A498) | GI50 (SK-MEL-2) | GI50 (CAKI-1) | GI50 (MDA-N) | GI50 (SNB-75) | GI50 (U-251)
COc1ccc(/C=C2\CC3C4CC=C5C[C@@H](N6CCCC6)CC[C@]5(C)C4CC[C@]3(C)[C@H]2O)cc1OC (stereo not given in full) | 7.85 µM (inactive) | 3.77 µM (inactive) | 6.81 | 8.97 µM (inactive) | 4.13 µM (inactive) | 8.24 µM (inactive) | 9.04 µM (inactive) | 8.38 µM (inactive) | 9.46 µM (inactive) | 15.8 µM (inactive) | 6.7 µM (inactive) | 10.5 µM (inactive) | 9.27 µM (inactive) | 9.02 µM (inactive) | 8.2 µM (inactive) | 7.43 µM (inactive) | 8.65 µM (inactive) | 7.55 µM (inactive) | 12.2 µM (inactive) | 8.45 µM (inactive)
N#Cc1c(N)nc2c(/N=N\c3ccccc3)c(N)nn2c1Nc1ccccc1 | 16 µM (inactive) | 18.6 µM (inactive) | 23.6 | 3.4 µM (inactive) | 12.4 µM (inactive) | 9.38 µM (inactive) | 4.55 µM (inactive) | 9.93 µM (inactive) | 21.1 µM (inactive) | 10.8 µM (inactive) | 16.4 µM (inactive) | 25.7 µM (inactive) | > 10 µM (inactive) | 20.4 µM (inactive) | 21.7 µM (inactive) | 7.91 µM (inactive) | 8.93 µM (inactive) | 15.6 µM (inactive) | 34.3 µM (inactive) | 10.2 µM (inactive)
Brc1ccc2[nH]cc(-c3nc(-c4c[nH]c5ccccc45)cs3)c2c1 | 2.37 µM (inactive) | 2.86 µM (inactive) | 2.39 | 1.93 µM (inactive) | 1.85 µM (inactive) | 2.53 µM (inactive) | 2.47 µM (inactive) | 1.22 µM (inactive) | 3.24 µM (inactive) | 3.16 µM (inactive) | 3.88 µM (inactive) | 2.59 µM (inactive) | 2.97 µM (inactive) | 2.79 µM (inactive) | 2.88 µM (inactive) | 2.82 µM (inactive) | 2.74 µM (inactive) | 2.91 µM (inactive) | 10.4 µM (inactive) | 3.01 µM (inactive)
COc1cc2ccc1OCc1cccc(n1)COc1ccc(cc1OC)/C=N\c1ccc(cc1)-c1ccc(cc1)/N=C\2 | > 100 µM (inactive) | > 100 µM (inactive) | > 100 | > 100 µM (inactive) | > 100 µM (inactive) | > 100 µM (inactive) | > 100 µM (inactive) | > 100 µM (inactive) | > 100 µM (inactive) | > 100 µM (inactive) | > 100 µM (inactive) | > 100 µM (inactive) | > 100 µM (inactive) | > 100 µM (inactive) | > 100 µM (inactive) | > 100 µM (inactive) | > 100 µM (inactive) | > 100 µM (inactive) | > 100 µM (inactive) | > 100 µM (inactive)
CC(C)(C)C(=O)Nc1c(C=O)ccc2[nH]cnc12 | > 100 µM (inactive) | > 100 µM (inactive) | > 100 | 62.8 µM (inactive) | – | > 100 µM (inactive) | > 100 µM (inactive) | > 100 µM (inactive) | > 100 µM (inactive) | > 100 µM (inactive) | > 100 µM (inactive) | > 100 µM (inactive) | > 100 µM (inactive) | > 100 µM (inactive) | > 100 µM (inactive) | > 100 µM (inactive) | 75.7 µM (inactive) | > 100 µM (inactive) | > 100 µM (inactive) | 82.4 µM (inactive)
C=C1C(=O)O[C@H]2[C@H](OC(C)=O)[C@@H](C)CCC/C(C)=C/CC[C@@]3(C)O[C@@H]3C[C@@H]12 | 4.08 µM (inactive) | 1.6 µM (inactive) | 2.31 | 1.86 µM (inactive) | 2.94 µM (inactive) | 2.23 µM (inactive) | 4.04 µM (inactive) | 3.19 µM (inactive) | 7.35 µM (inactive) | 2.58 µM (inactive) | 3.24 µM (inactive) | 1.5 µM (inactive) | 2.9 µM (inactive) | 1.59 µM (inactive) | 3.56 µM (inactive) | 6.01 µM (inactive) | 2.19 µM (inactive) | 2.94 µM (inactive) | 6.21 µM (inactive) | 6.34 µM (inactive)
COc1cc(C2C3=C(COC3=O)Oc3cc4c(cc32)OCO4)ccc1OC(C)=O (stereo not given) | 0.436 µM (active) | 0.521 µM (active) | 0.468 | 0.708 µM (active) | 0.346 µM (active) | 0.398 µM (active) | 0.67 µM (active) | 0.224 µM (active) | 0.957 µM (active) | 0.284 µM (active) | 0.0263 µM (active) | 5.14 µM (inactive) | 0.352 µM (active) | 0.279 µM (active) | 1.53 µM (inactive) | 0.684 µM (active) | 0.303 µM (active) | 0.0467 µM (active) | 0.168 µM (active) | 0.492 µM (active)
[N-]=[N+]=Nc1ccccc1C(=O)N1C(=O)c2ccccc2C(=O)N(C(=O)c2ccccc2N=[N+]=[N-])c2ccccc21 | 52.8 µM (inactive) | 28.4 µM (inactive) | 54.8 | 19.8 µM (inactive) | 98.6 µM (inactive) | 35 µM (inactive) | 86.5 µM (inactive) | 34.1 µM (inactive) | 37.1 µM (inactive) | 32.1 µM (inactive) | 43.5 µM (inactive) | > 100 µM (inactive) | > 100 µM (inactive) | 40.8 µM (inactive) | 42.2 µM (inactive) | 37.9 µM (inactive) | 59 µM (inactive) | 59.3 µM (inactive) | 21.4 µM (inactive) | 40 µM (inactive)
Cc1ccccc1-n1c(=O)nc2n(-c3ccc(C(C)(C)C)cc3)c3ccccc3cc-2c1=O | 19 µM (inactive) | 24.4 µM (inactive) | 16.6 | 15.6 µM (inactive) | 16.5 µM (inactive) | 15.5 µM (inactive) | 21.7 µM (inactive) | 18.5 µM (inactive) | 31.3 µM (inactive) | 15.9 µM (inactive) | 11.3 µM (inactive) | 18.8 µM (inactive) | 26.4 µM (inactive) | 16.7 µM (inactive) | 30.5 µM (inactive) | 16.7 µM (inactive) | 23.9 µM (inactive) | 22.6 µM (inactive) | 22.3 µM (inactive) | 15 µM (inactive)
COc1cc(C(c2c(O)c3ccccc3oc2=O)c2c(O)c3ccccc3oc2=O)ccc1O | 21.1 µM (inactive) | 20.2 µM (inactive) | 17.4 | 24.6 µM (inactive) | 21.1 µM (inactive) | 34 µM (inactive) | 39 µM (inactive) | 17.2 µM (inactive) | 59.7 µM (inactive) | 23.7 µM (inactive) | 33 µM (inactive) | 50.4 µM (inactive) | 25.1 µM (inactive) | 28.6 µM (inactive) | 51.9 µM (inactive) | 25.2 µM (inactive) | 20.8 µM (inactive) | 19.9 µM (inactive) | 20.7 µM (inactive) | 22.9 µM (inactive)
Cc1c2c(OCC3CCCCO3)nn(C)c(=O)c2c(C)n1-c1ccccc1 (stereo not given) | 17.7 µM (inactive) | 17.2 µM (inactive) | 17.1 | 17.7 µM (inactive) | 31.6 µM (inactive) | 17 µM (inactive) | 20 µM (inactive) | 17.4 µM (inactive) | 17.5 µM (inactive) | – | 18.3 µM (inactive) | 23.4 µM (inactive) | 16.6 µM (inactive) | 21.3 µM (inactive) | 14.9 µM (inactive) | 24.1 µM (inactive) | 21.5 µM (inactive) | 19.5 µM (inactive) | 13 µM (inactive) | 17.4 µM (inactive)
ClCCN1CCO/C1=N/c1ccc2c(c1)CCCC2 | 13.4 µM (inactive) | 16.2 µM (inactive) | 20 | 13.4 µM (inactive) | 14.4 µM (inactive) | 13.4 µM (inactive) | 8.95 µM (inactive) | 12.2 µM (inactive) | 13.8 µM (inactive) | 22.3 µM (inactive) | 10.5 µM (inactive) | 13.5 µM (inactive) | 14 µM (inactive) | 18.1 µM (inactive) | 6.92 µM (inactive) | 13.7 µM (inactive) | 16 µM (inactive) | 10.8 µM (inactive) | 13.3 µM (inactive) | 4.65 µM (inactive)
O=C(O)CCN1CCN(CCC(=O)O)CCN(CCC(=O)O)CC1 | > 100 µM (inactive) | 79.6 µM (inactive) | 91.2 | 82.8 µM (inactive) | 53.6 µM (inactive) | 32.6 µM (inactive) | – | 92.7 µM (inactive) | 69.3 µM (inactive) | 44.4 µM (inactive) | > 100 µM (inactive) | > 100 µM (inactive) | > 100 µM (inactive) | > 100 µM (inactive) | > 100 µM (inactive) | > 100 µM (inactive) | > 100 µM (inactive) | > 100 µM (inactive) | 45.8 µM (inactive) | > 100 µM (inactive)
CCc1ccc2oc(-c3cc(O)c(-c4nc5cc(CC)ccc5o4)cc3O)nc2c1 | > 100 µM (inactive) | > 100 µM (inactive) | > 100 | > 100 µM (inactive) | – | > 100 µM (inactive) | > 100 µM (inactive) | > 100 µM (inactive) | > 100 µM (inactive) | > 100 µM (inactive) | > 100 µM (inactive) | > 100 µM (inactive) | > 100 µM (inactive) | > 100 µM (inactive) | > 100 µM (inactive) | > 100 µM (inactive) | – | > 100 µM (inactive) | 86.5 µM (inactive) | > 100 µM (inactive)
